Data on eight compounds can be found in patent US20250327791A1, “METHODS OF TREATMENT BASED ON PATIENT SPECIFIC CLINICAL TRIAL MODELS AND ASSOCIATED MODELS AND USES” (DUKE UNIVERSITY, priority 2017, published 2025).

SMILES strings stand for the structures. pIC50: −log10 of the molar value.

The term pIC50 denotes the IC50 on a negative log10 scale, so that one unit is a factor of ten.

In one test the test system is organoid B. In words: Organoid cell viability / IC50. The format is cell-based. As for the experimental part: (§1) In embodiments organoids were created by embedding single cells in Matrigel on ice and seeding the cells in 48 well plates. After the Matrigel was polymerized for 10 minutes at 37° C. basal culture medium was overlaid containing at least one of the optimized growth factor combinations in FIG. 19.
(§2) ATAC-Seq tests were run to determine which pathways were up and down regulated in the presence of various drugs. […] The effectiveness of oxaliplatin 230, an FGFR1 inhibitor 231, along with oxaliplatin and an FGFR1 inhibitor 234 as cell killers was tested in the organoid as shown in FIG. 23. […] The cell killing potential of oxaliplatin 241, an oxytocin antagonist 243, along with oxaliplatin and an oxytocin antagonist 245 was tested as shown in FIG. 24.

The subject of another test is organoid C. Kind of test: Organoid cell viability / IC50. The format is cell-based. As for the experimental part: as §1, §2
The test system of another test is organoid A. In words: Organoid cell viability / IC50. The format is cell-based. To be noted: for pIC50: organoid A. On the procedure:
as §1, §2

For a further test, the system named is CRC240. Kind of test: High-throughput drug screen, CellTiter-Glo cell viability. Type of test: cell-based, human. To be noted: CRC240 cell line; 1 μM; 72 hours. On the procedure: (§3) Unless otherwise noted all experiments were carried out using the following materials and methods which are here presented as examples and not limiting embodiments. All equivalent variants are contemplated as part of the presently disclosed subject matter. An Echo Acoustic Dispenser provided automated liquid handling for drug addition while cell plating was performed by a Thermo Fisher Well Mate and assays used a Clarioscan plate reader. The drugs assayed were stamped to the cell plates immediately prior to cell plating at a final concentration of 1 μM. The drug pre-coated plates were plated with 500-1000 cells/well. 72 hours after cell plating cell viabilities were assessed via a CellTiter-Glo Luminescent Cell Viability Assay.
(§4) In this embodiment matching cells lines 31 and PDXs are created 32. These can be developed as described in the Uronis and Kim papers previously incorporated by reference. Drugs may subsequently be screened using these cell lines 33 the results validated in vivo 34 and RNA-Seq and molecular analysis 35 used. As a non-limiting example, CRC057, CRC119, CRC240, CRC247 15-496, and 16-159 were derived from patient colorectal cancers. It should be understood by those of skill in the art that any suitable type of cancer sample may have been taken. High-throughput drug screens, including 119 FDA-approved drug compounds, were performed using the patient-derived cell lines. Any suitable type of high or low throughput drug screen of any FDA approved or non-FDA approved drug may be performed on the cell lines. […] 88%, 95%, 88, and 89% of CRC119 were killed by docetaxel 42, doxorubicin 41, and the vinca alkaloids vincristine and vinorelbine 43 respectively. 46%, 93%, 63% and 56% of CRC240 were killed by docetaxel 42, doxorubicin 41, and the vinca alkaloids vincristine and vinorelbine 43 respectively. 47% 83%, 46% and 46% of CRC057 were killed by docetaxel 42, doxorubicin 41, and the vinca alkaloids vincristine and vinorelbine 43 respectively. 25%, 70%, 37%, and 33% of CRC247 were killed by docetaxel 42, doxorubicin 41, and the vinca alkaloids vincristine and vinorelbine 43 respectively. […] CRC119 45 and 16-159 46 were sensitive to the standard of care cytotoxic chemotherapeutic agent irinotecan with 43% and 64% of cells killed respectively.
(In general: ATP-based viability assays read luminescence as a measure of living cells.)

A further test concerns CRC119. Described as above. Type of test: cell-based, human. To be noted: CRC119 cell line; 1 μM; 72 hours. On the procedure: as §3, §4
The test system of another test is CRC247. Described as above. The conditions noted are these: CRC247 cell line; 1 μM; 72 hours. The format is cell-based, human. On the procedure: as §3, §4
The test system of a further test is CRC057. The test is described as above. The format is cell-based, human. The conditions noted are these: CRC057 cell line; 1 μM; 72 hours. On the procedure:
as §3, §4

A further test deals with CRC119 PDX. Kind of test: PDX studies accompanying the organoid studies (tumor growth inhibition). The conditions noted are these: 10 mg/kg oxaliplatin or 20 mg/kg irinotecan weekly IP for three weeks. Type of test: in vivo, mice. From the text: (§5) PDX studies accompanying the organoid studies were developed as described previously and in Uronis J M, Osada T, McCall S, Yang X Y, Mantyh C, Morse M A, et al. Histological and molecular evaluation of patient-derived colorectal cancer explants. PloS one 2012; 7:e38422, and Kim M K, Osada T, Barry W T, Yang X Y, Freedman J A, Tsamis K A, et al. Characterization of an oxaliplatin sensitivity predictor in a preclinical murine model of colorectal cancer. Molecular cancer therapeutics 2012; 11:1500-1509. Both of these references are hereby incorporated in their entirety. 6-8 week old NOD/SCID-beige mice were used and the tumors were measured twice a week as described above. Once tumors reached a size of 250 mm^3 mice were treated with either 10 mg/kg oxaliplatin or 20 mg/kg irinotecan weekly via IP (intraperitoneal injection) for three weeks with saline used as a control. PDX tumor sizes were recorded and one-way ANOVA analysis were carried out as described in the references above to determine TGI (tumor growth inhibition.
(§6) In embodiments, patients undergo biopsy of metastatic cancer, CT of the chest, abdomen and pelvis. In embodiments, drug sensitivity is tested within 7-10 days (or 2-3 days) of obtaining tissue. In embodiments, FIG. 12, organoids are prepared from a PDX biopsy 121 by collecting and digesting cells 122, seeding the cells in a 24 well plate 123, after incubation seeding cells from the 24 well plate in a 96 well plate 124 and screening drugs 125. […] Sensitivity to oxaliplatin at 100 nM, 1 μM, and 10 μM was tested on 8 organoids, CRC057, CRC119, CRC240, CRC16-159, CRC17-608, CRC18-347, CRC247 and CRC18-266, created using the above procedure. […] SN38 (7-ethyl-10-hydroxycamptothecin) was tested, rather than irinotecan, in organoids since irinotecan undergoes deesterification to SN-38 in vivo but not in vitro.

A further test has as its system CRC240 PDX. Described as above. The format is in vivo, mice. To be noted: 10 mg/kg oxaliplatin or 20 mg/kg irinotecan weekly IP for three weeks.
Text: as §5, §6

A further test deals with CRC240 organoid. In words: Organoid drug sensitivity assay (Cell Titer Glo). The format is cell-based, human. The conditions noted are these: SN38 tested rather than irinotecan in organoids. As for the experimental part: (§7) In embodiments, organoids are prepared by mincing a […] tissue sample into <2 mm^3 pieces. Samples are then digested in 5 mL of DMEMF-12+Penicillin Streptomycin+Rock inhibitor Y-27632 along with 20 μL of 0.25% Trypsin/EDTA for an hour with manual inversion every 10 minutes. After being spun down at 1500 RPM the pellet is washed with 5 mL of 10% FBS. During each of 3 washes the material is pipetted slowly about fifteen times. After each wash supernatant is collected and passed through a 70 μm cell strainer. Collected washes are spun down for five minutes at 1500 RPM and the pellet mixed with a 4:1 mixture of Matrigel®/PBS and plated. After the Matrigel® solidifies 1 mL of media is added to each well.
(§8) Collected matrigel is spun for 7 minutes at 1500 RPM. The pellet is collected and resuspended in 300 μL of PBS. 50 μL of this mixture is then mixed with 50 μL of a 1:1 mixture of matrigel/PBS. 5 μL of this mixture is then added to the center of each well in a 96 well plate and the plate incubated until the matrigel solidifies. […] After 90 μL of media is added and the plate is incubated at 37° C. for 24 hours, 5 μL of the tested drug is added to each well. Example concentrations, such as 100 nM, 1 μM and 10 μM concentrations, may be tested in triplicate. After the plate is incubated at 37° C. for 48 hours, 40 μL of Cell Titer Glo for organoids is added to each well to determine drug sensitivity.
as §6

Another test has as its system CRC119 organoid. In words: Organoid drug sensitivity assay (Cell Titer Glo). The format is cell-based, human. To be noted: SN38 tested rather than irinotecan in organoids. On the procedure:
as §7, §8, §6

In a further test the test system is 16-159. Kind of test: High-throughput drug screen, CellTiter-Glo cell viability. To be noted: 16-159 cell line; 1 μM; 72 hours. Type of test: cell-based, human. As for the experimental part:
as §3, §4

For a further test, the system named is CRC057 PDX. Kind of test: PDX studies accompanying the organoid studies (tumor growth inhibition). Type of test: in vivo, mice. The conditions noted are these: 10 mg/kg oxaliplatin weekly IP for three weeks.
Text: as §5, §6

The next test deals with 18-347 PDX. The test is described as above. Type of test: in vivo, mice. To be noted: 10 mg/kg oxaliplatin weekly IP for three weeks.
Text: as §5, §6

Another test deals with CRC16-159 PDX. The description is as above. The conditions noted are these: 10 mg/kg oxaliplatin weekly IP for three weeks. Type of test: in vivo, mice.
Text: as §5, §6

The next test has as its system CRC16-159 organoid. In words: Organoid drug sensitivity assay (Cell Titer Glo). The format is cell-based, human. On the procedure: as §7, §8, §6
In a further test the test system is CRC18-347 organoid. In words: Organoid drug sensitivity assay (Cell Titer Glo). The format is cell-based, human. As for the experimental part: as §7, §8, §6
The test system of another test is CRC057 organoid. In words: Organoid drug sensitivity assay (Cell Titer Glo). Type of test: cell-based, human. As for the experimental part: as §7, §8, §6

Regarding `CCc1c2c(nc3ccc(O)cc13)-c1cc3c(c(=O)n1C2)COC(=O)[C@]3(O)CC` [SN38, 7-ethyl-10-hydroxycamptothecin], the values for the pIC50 with organoid B, in the test on organoid C and in the test on organoid A were 4.36, 7.49 and 7.94, respectively.
With `CC(=O)O[C@@]12CO[C@@H]1C[C@H](O)[C@@]1(C)C(=O)[C@H](O)C3=C(C)[C@@H](OC(=O)[C@H](O)[C@@H](NC(=O)OC(C)(C)C)c4ccccc4)C[C@@](O)([C@@H](OC(=O)c4ccccc4)[C@H]21)C3(C)C` [docetaxel], the cells killed in the test with CRC240 was 46%; in the test on CRC119 it was 88%; with CRC247 it was 25%; with CRC057, 47%.
The like results for `COc1cccc2c1C(=O)c1c(O)c3c(c(O)c1C2=O)C[C@@](O)(C(=O)CO)C[C@@H]3O[C@H]1C[C@H](N)[C@H](O)[C@H](C)O1` [doxorubicin] were, in that order, 93%, 95%, 70% and 83%.
As to `O=c1[nH]cc(F)c(=O)[nH]1` [fluorouracil], the pIC50 in the test on organoid B is 7.43; with organoid C, 6.90; in the test on organoid A, 5.40.
For the compound `CCc1c2c(nc3ccc(OC(=O)N4CCC(N5CCCCC5)CC4)cc13)-c1cc3c(c(=O)n1C2)COC(=O)[C@]3(O)CC` [irinotecan], the “PDX sensitivity” value with CRC119 PDX and in the test on CRC240 PDX was “sensitive” in each case. The “organoid sensitivity” value with CRC240 organoid and with CRC119 organoid was “sensitive” throughout. Besides, the cells killed with 16-159 stood at 64%; with CRC119, 43%.
On to `O=C1[O][Pt]2([NH][C@@H]3CCCC[C@H]3[NH]2)[O]C1=O` [oxaliplatin], for which the “PDX sensitivity” value is reported as “sensitive” in the test on CRC057 PDX; “sensitive” in the test with 18-347 PDX; “resistant” in the test with CRC16-159 PDX; “resistant” in the test with CRC119 PDX; “resistant” with CRC240 PDX. For the same compound, the pIC50 with organoid B was 5.15; in the test on organoid C, 4.66; with organoid A it was 3.89. Also, the “organoid sensitivity” value in the test with organoid A (Organoid A, from the IC50 data) is recorded as “resistant”; with CRC16-159 organoid, “resistant”; in the test on CRC240 organoid, “resistant”; in the test with CRC18-347 organoid (18-347 organoid), “sensitive”; in the test with CRC057 organoid, “sensitive”; with CRC119 organoid, “resistant”. The killing in the test on CRC18-347 organoid (CRC18-347 organoid, 1 μM) was over 50%; in the test on CRC057 organoid (1 μM) it was over 50%. The compound further returned a cells killed with CRC057 of 46%.
Regarding `CC[C@]1(O)C[C@H]2CN(CCc3c([nH]c4ccccc34)[C@@](C(=O)OC)(c3cc4c(cc3OC)N(C=O)[C@H]3[C@@](O)(C(=O)OC)[C@H](OC(C)=O)[C@]5(CC)C=CCN6CC[C@]43[C@@H]65)C2)C1` [vincristine], the cells killed is listed as 63% with CRC240, 88% in the test on CRC119, 37% with CRC247 and 46% with CRC057.
The like results for `CCC1=C[C@@H]2CN(C1)Cc1c([nH]c3ccccc13)[C@@](C(=O)OC)(c1cc3c(cc1OC)N(C)[C@H]1[C@@](O)(C(=O)OC)[C@H](OC(C)=O)[C@]4(CC)C=CCN5CC[C@]31[C@@H]54)C2` [vinorelbine] were, in that order, 56%, 89%, 33% and 46%.
